Measurements: ChEMBL document CHEMBL5226294, “Natural bioeffective cyclooligopeptides from plant seeds of Annona genus” (Eur J Med Chem, 2021)
Values after ≈ are worked out from the molar mass of the structure shown. Where a SMILES comes first, the peptide text is derived from it. [ ]: non-standard residue; d: D form. Met(O) = CS(=O)CC[C@H](N)C(=O)O; Dab = NCC[C@H](N)C(=O)O

Tests used:
KB [1] = test: Cytotoxicity against human KB cells assessed as reduction in cell viability; format: functional, cell-based
KB [2] = test: Cytotoxicity against human KB cells assessed as reduction in cell viability incubated for 3 days; format: functional, cell-based; conditions: 72 h
[3] = Cytotoxicity against mouse DLA cell assessed as reduction in cell viability incubated for 3 hrs by tryphan blue dye based assay; format: toxicity; conditions: DLA cells
[4] = Cytotoxicity against mouse EAC cell assessed as reduction in cell viability incubated for 3 hrs by tryphan blue dye based assay; format: toxicity; conditions: EAC (Ehrlich) cells
DU-145 = test: Cytotoxicity against human DU-145 cells assessed as inhibition of cell growth incubated for 72 hrs by XTT assay; format: functional, cell-based; conditions: DU-145, 72 h
KB [5] = test: Cytotoxicity against human KB cells assessed as inhibition of cell growth at 6.25 to 100 uM incubated for 72 hrs by MTT assay; format: functional; design: scale not given: the % may be the effect or the level left; conditions: dose 6.25-100 µM
HL-60 = test: Cytotoxicity against human HL-60 cells assessed as inhibition of cell growth at 6.25 to 100 uM incubated for 72 hrs by MTT assay; format: functional; design: scale not given: the % may be the effect or the level left; conditions: dose 6.25-100 µM
Pseudomonas aeruginosa [6] = test: Antibacterial activity against Pseudomonas aeruginosa MUMC 266 assessed as inhibition of bacterial growth incubated for 18 hrs by disk diffusion method; format: functional
Escherichia coli [7] = test: Antibacterial activity against Escherichia coli MUMC 106 assessed as inhibition of bacterial growth incubated for 18 hrs by disk diffusion method; format: functional
Candida albicans [8] = test: Antifungal activity against Candida albicans MUMC 29 assessed as inhibition of fungal growth incubated for 48 hrs by disk diffusion method; format: functional
Candida albicans [9] = test: Antifungal activity against Candida albicans MUMC 29 assessed as increase in inhibition of fungal growth incubated for 48 hrs by disk diffusion method relative to griseofulvin; format: functional; design: scale not given: the % may be the effect or the level left
Pseudomonas aeruginosa [10] = test: Antibacterial activity against Pseudomonas aeruginosa MUMC 266 assessed as increase in inhibition of bacterial growth incubated for 18 hrs by disk diffusion method relative to ciprofloxacin; format: functional; design: scale not given: the % may be the effect or the level left
Escherichia coli [11] = test: Antibacterial activity against Escherichia coli MUMC 106 assessed as increase in inhibition of bacterial growth incubated for 18 hrs by disk diffusion method relative to ciprofloxacin; format: functional; design: scale not given: the % may be the effect or the level left
[12] = Cytotoxicity against mouse DLA cell assessed as reduction in cell viability; format: toxicity, cell-based; conditions: DLA cells
[13] = Cytotoxicity against mouse EAC cell assessed as reduction in cell viability; format: toxicity, cell-based; conditions: EAC (Ehrlich) cells
[14] = tested on: Trichophyton mentagrophytes; test: Antimicrobial activity against Trichophyton mentagrophytes MUMC 665 assessed as inhibition of microbial growth by disk diffusion method; format: functional
Microsporum audouinii [15] = test: Antimicrobial activity against Microsporum audouinii MUMC 545 assessed as inhibition of microbial growth by disk diffusion method; format: functional
Pseudomonas aeruginosa [16] = test: Antibacterial activity against Pseudomonas aeruginosa assessed as inhibition of bacterial growth incubated for 18 hrs by disc diffusion method; format: functional
Klebsiella pneumoniae = test: Antibacterial activity against Klebsiella pneumoniae assessed as inhibition of bacterial growth incubated for 18 hrs by disc diffusion method; format: functional
[17] = tested on: Trichophyton mentagrophytes; test: Antifungal activity against Trichophyton mentagrophytes assessed as inhibition of fungal growth incubated for 48 hrs by serial plate dilution method; format: functional
Microsporum audouinii [18] = test: Antifungal activity against Microsporum audouinii assessed as inhibition of fungal growth incubated for 48 hrs by serial plate dilution method; format: functional

## CC[C@H](C)[C@@H]1NC(=O)[C@@H]2CCCN2C(=O)[C@H](C(C)C)NC(=O)[C@H](C)NC(=O)CNC(=O)[C@@H]2CCCN2C(=O)[C@H](C)NC(=O)[C@H](Cc2ccc(O)cc2)NC1=O (cyclo(APGAVPIY))
KB [1]
  IC50: 0.52 µM
KB [2]
  IC50: 0.52 µM
[3]
  CC50 at 3 h: 6.72 µM
[4]
  CC50 at 3 h: 11.9 µM

## CC[C@H](C)[C@@H]1NC(=O)[C@H](C)NC(=O)[C@H](C(C)C)NC(=O)[C@H]([C@@H](C)O)NC(=O)CNC(=O)[C@H](Cc2ccc(O)cc2)NC(=O)[C@H](CO)NC(=O)[C@H](CCN)NC(=O)[C@@H]2CCCN2C1=O (cyclo(AIP[Dab]SYGTV))
DU-145
  IC50: 27.3 µM

## CC[C@H](C)[C@@H]1NC(=O)[C@@H]2CCCN2C(=O)CNC(=O)[C@H](C)NC(=O)[C@H](Cc2ccc(O)cc2)NC1=O (cyclo(AGPIY))
KB [5]
  Activity: <30%
HL-60
  Activity: <30%

## COc1cccc2c1C(=O)c1c(O)c3c(c(O)c1C2=O)C[C@@](O)(C(=O)CO)C[C@@H]3O[C@H]1C[C@H](N)[C@H](O)[C@H](C)O1 [DOXORUBICIN]
KB [1]
  IC50: 0.02 µM
DU-145
  IC50: 1.1 µM

## CC(C)C[C@@H]1NC(=O)CNC(=O)[C@@H]2CCCN2C(=O)[C@H]([C@@H](C)O)NC(=O)[C@H](C(C)C)NC(=O)[C@H](C)NC(=O)[C@H](CO)NC1=O
DU-145
  IC50: 54.9 µM

## CC(C)C[C@@H]1NC(=O)CNC(=O)[C@H](Cc2ccccc2)NC(=O)[C@H](Cc2ccc(O)cc2)NC(=O)[C@@H]2CCCN2C(=O)CNC1=O [Cherimolacyclopeptide E] (cyclo(FGLGPY))
KB [2]
  IC50: 0.017 µM
Pseudomonas aeruginosa [6]
  MIC: 6 mg/L (≈ 9.45 µM)
Escherichia coli [7]
  MIC: 12.5 mg/L (≈ 19.7 µM)
Candida albicans [8]
  MIC: 6 mg/L (≈ 9.45 µM)
[3]
  CC50 at 3 h: 2.76 µM
[4]
  CC50 at 3 h: 4.96 µM
Candida albicans [9]
  Activity: 25%
Pseudomonas aeruginosa [10]
  Activity: 12%
Escherichia coli [11]
  Activity: 12%

## CC(C)C[C@@H]1NC(=O)[C@H](Cc2c[nH]c3ccccc23)NC(=O)[C@H](C)NC(=O)[C@H](CC(N)=O)NC(=O)[C@@H]2CCCN2C(=O)[C@H]([C@@H](C)O)NC(=O)CNC1=O (cyclo(AWLGTPN))
[12]
  CC50: 11.6 µM
[13]
  CC50: 14.1 µM
[14]
  MIC: 6 mg/L
Microsporum audouinii [15]
  MIC: 6 mg/L

## CC[C@H](C)[C@@H]1NC(=O)[C@@H]2CCCN2C(=O)[C@H](CC(C)C)NC(=O)[C@H](CCSC)NC(=O)CNC(=O)[C@H]([C@@H](C)O)NC(=O)[C@H](CCC(N)=O)NC(=O)[C@@H]2CCCN2C1=O (cyclo(GMLPIPQT))
KB [1]
  IC50: 0.6 µM

## CC(C)C[C@@H]1NC(=O)CNC(=O)[C@@H]2CCCN2C(=O)[C@H](CC(N)=O)NC(=O)[C@H](C)NC(=O)[C@H](Cc2ccc(O)cc2)NC(=O)[C@@H]2CCCN2C1=O [CYCLOMONTANIN D] (cyclo(ANPGLPY))
Pseudomonas aeruginosa [16]
  MIC: 6 mg/L (≈ 8.42 µM)
Klebsiella pneumoniae
  MIC: 6 mg/L (≈ 8.42 µM)
[17]
  MIC: 6 mg/L (≈ 8.42 µM)
Microsporum audouinii [18]
  MIC: 6 mg/L (≈ 8.42 µM)

## CC[C@H](C)[C@@H]1NC(=O)CNC(=O)[C@H](CCSC)NC(=O)CNC(=O)[C@@H]2CCCN2C(=O)[C@H](CC(C)C)NC(=O)[C@H](Cc2ccc(O)cc2)NC1=O (cyclo(GIYLPGM))
KB [1]
  IC50: 16.5 µM
KB [2]
  IC50: 16.5 µM

## CC(C)C[C@@H]1NC(=O)[C@H](Cc2ccc(O)cc2)NC(=O)[C@@H]2CCCN2C(=O)[C@@H]2CCCN2C(=O)[C@H](C(C)C)NC(=O)CNC(=O)[C@@H]2CCCN2C1=O (cyclo(GVPPYLP))
KB [5]
  Activity: <30%
HL-60
  Activity: <30%

## CC[C@H](C)[C@@H]1NC(=O)[C@@H]2CCCN2C(=O)[C@H](CC(C)C)NC(=O)[C@H](CC[S+](C)[O-])NC(=O)CNC(=O)[C@H]([C@@H](C)O)NC(=O)[C@H](CCC(N)=O)NC(=O)[C@@H]2CCCN2C1=O (stereo partly drawn) (cyclo(G[Met(O)]LPIPQT))
KB [1]
  IC50: 45 µM

## O=c1[nH]cc(F)c(=O)[nH]1 [FLUOROURACIL]
[3]
  CC50 at 3 h: 37.4 µM
[4]
  CC50 at 3 h: 37.4 µM

## CC[C@H](C)[C@@H]1NC(=O)CNC(=O)[C@H](CCSC)NC(=O)CNC(=O)[C@@H]2CCCN2C(=O)[C@H](CCSC)NC(=O)[C@@H]2CCCN2C(=O)[C@H](CC(C)C)NC(=O)[C@H](Cc2ccc(O)cc2)NC1=O (cyclo(GIYLPMPGM))
KB [2]
  IC50: 0.06 µM

## CC(C)C[C@@H]1NC(=O)[C@H](C(C)C)NC(=O)[C@H](C(C)C)NC(=O)CNC(=O)[C@H](C)NC(=O)CNC(=O)[C@@H]2CCCN2C1=O (cyclo(AGVVLPG))
KB [1]
  IC50: 0.73 µM

## CC(C)C[C@@H]1NC(=O)CNC(=O)[C@@H]2CCCN2C(=O)[C@H]([C@@H](C)O)NC(=O)[C@H](C(C)C)NC(=O)[C@H](C)NC(=O)[C@H](CC(N)=O)NC1=O
KB [1]
  IC50: 0.97 µM
